Earlier results, collected in patent US20160213705A1, “METHOD TO TREAT ONYCHOMYCOSIS BY HYDROXYPROPYL CHITOSAN” (POLICHEM S.A., priority 2013, published 2016).
Where “and” joins values, the source holds several entries; their conditions need not be identical. Equal values may be shown once.

What was measured:
[1] = tested on: onychomycosis; conditions: topical; according to the different vehicles used
[2] = tested on: onychomycosis; conditions: oral route

| SMILES | cure rate [1] | complete cure, proportion of patients [2] |
| --- | --- | --- |
| Cc1cc(C2CCCCC2)n(O)c(=O)c1 [ciclopirox] | 12.7% and 5.8% |  |
| CN(C/C=C/C#CC(C)(C)C)Cc1cccc2ccccc12 [terbinafine] |  | 38% |
